From ChEMBL document CHEMBL5032489, “Selective Discovery of GPCR Ligands within DNA-Encoded Chemical Libraries Derived from Natural Products: A Case Study on Antagonists of Angiotensin II Type I Receptor” (J Med Chem, 2021)
Each block holds one compound with its values, some of them ahead of it. Calls of active or inactive are those of the source. The calls are words filed in the database; no cut-off is given here.

What was measured:
[1] = target: T1, Type-1 angiotensin II receptor (Homo sapiens, UniProt P30556); assay: (§1) Displacement of [125-I]-[Sar1, AngII from AT1R (unknown origin) expressed in Escherichia coli BL 21 (DE3) incubated for 2 hrs by radioimmunoassay
T1 sequence (P30556 whole entry): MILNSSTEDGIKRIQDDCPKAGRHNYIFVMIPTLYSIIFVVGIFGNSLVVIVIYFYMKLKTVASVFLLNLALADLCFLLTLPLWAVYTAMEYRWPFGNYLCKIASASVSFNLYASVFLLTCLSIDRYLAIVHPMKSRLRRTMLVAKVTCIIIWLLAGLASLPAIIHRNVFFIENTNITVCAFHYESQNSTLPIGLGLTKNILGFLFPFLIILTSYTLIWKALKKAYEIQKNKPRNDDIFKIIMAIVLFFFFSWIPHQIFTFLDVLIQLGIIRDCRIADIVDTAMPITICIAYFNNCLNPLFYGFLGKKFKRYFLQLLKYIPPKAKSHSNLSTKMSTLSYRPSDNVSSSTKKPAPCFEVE

[2] = target: T2, Type-1 angiotensin II receptor (Homo sapiens) (UniProt P30556); assay: as §1
T2 sequence (whole entry): T1 sequence (P30556 whole entry)

Rattus norvegicus [3] = assay: Antihypertensive activity against two-kidney two clip renovascular hypertensive Sprague-Dawley rat model assessed as decrease in systolic blood pressure at 8.3 mg/kg, po measured after 4 days of treatment by noninvasive sphygmomanometry; assay type: functional, organism-based; settings: time 4.0 day
[4] = AUC (0-infinity) in two-kidney two clip renovascular hypertensive Sprague-Dawley rat model at 15 mg/kg, po by HPLC-MS/MS analysis; assay type: ADME, organism-based; set-up: time infinity, route oral, dose 15 mg/kg; settings: in vivo
[5] = AUC (0-infinity) in two-kidney two clip renovascular hypertensive Sprague-Dawley rat model at 30 mg/kg, po by HPLC-MS/MS analysis; assay type: ADME, organism-based; set-up: route oral, time infinity, dose 30 mg/kg; settings: in vivo
[6] = Cmax in two-kidney two clip renovascular hypertensive Sprague-Dawley rat model at 5 mg/kg, po by HPLC-MS/MS analysis; assay type: ADME, organism-based; set-up: route oral, dose 5 mg/kg; settings: in vivo
[7] = Cmax in two-kidney two clip renovascular hypertensive Sprague-Dawley rat model at 30 mg/kg, po by HPLC-MS/MS analysis; assay type: ADME, organism-based; set-up: route oral, dose 30 mg/kg; settings: in vivo
[8] = AUC (0-t) in two-kidney two clip renovascular hypertensive Sprague-Dawley rat model at 15 mg/kg, po by HPLC-MS/MS analysis; assay type: ADME, organism-based; set-up: dose 15 mg/kg; settings: in vivo
Rattus norvegicus [9] = assay: Antihypertensive activity against two-kidney two clip renovascular hypertensive Sprague-Dawley rat model assessed as decrease in systolic blood pressure at 15 to 30 mg/kg, po measured after 4 days of treatment by noninvasive sphygmomanometry; assay type: functional, organism-based; settings: dose 15-30 mg/kg, time 4.0 day
[10] = AUC (0-t) in two-kidney two clip renovascular hypertensive Sprague-Dawley rat model at 5 mg/kg, po by HPLC-MS/MS analysis; assay type: ADME, organism-based; set-up: dose 5 mg/kg; settings: in vivo
[11] = AUC (0-infinity) in two-kidney two clip renovascular hypertensive Sprague-Dawley rat model at 5 mg/kg, po by HPLC-MS/MS analysis; assay type: ADME, organism-based; set-up: route oral, time infinity, dose 5 mg/kg; settings: in vivo
[12] = Cmax in two-kidney two clip renovascular hypertensive Sprague-Dawley rat model at 15 mg/kg, po by HPLC-MS/MS analysis; assay type: ADME, organism-based; set-up: route oral, dose 15 mg/kg; settings: in vivo
[13] = target: T1, Type-1 angiotensin II receptor; assay: Binding affinity to AT1R (unknown origin) expressed in Escherichia coli strain BL 21 (DE3) incubated for 20 mins by SDS PAGE analysis
[14] = AUC (0-t) in two-kidney two clip renovascular hypertensive Sprague-Dawley rat model at 30 mg/kg, po by HPLC-MS/MS analysis; assay type: ADME, organism-based; set-up: dose 30 mg/kg; settings: in vivo
Rattus norvegicus [15] = assay: Antihypertensive activity against two-kidney two clip renovascular hypertensive Sprague-Dawley rat model assessed as decrease in diastolic blood pressure at 15 to 30 mg/kg, po measured after 4 days of treatment by noninvasive sphygmomanometry; assay type: functional, organism-based; settings: dose 15-30 mg/kg, time 4.0 day
[16] = Toxicity in two-kidney two clip renovascular hypertensive Sprague-Dawley rat model assessed as heart rate at 15 to 30 mg/kg, po measured after 4 days of treatment by noninvasive sphygmomanometry; assay type: organism-based; settings: in vivo, 96 h, dose 15-30 mg/kg, time 4 day

- IC50 [1]: 125 nM
SMILES: O=C(O)/C=C/c1ccc(O)c(O)c1 [CAFFEIC ACID]

- Activity [2]: inactive
SMILES: NC[C@H](O)c1ccc(O)c(O)c1

Continued, compound first:

SMILES: Cc1cc(Cn2cnc3c2C[C@@H](C(=O)O)N(C(=O)C(c2ccccc2)c2ccccc2)C3)ccc1N(C)C
- Activity [2]: inactive

SMILES: CCCCC(=O)N(Cc1ccc(-c2ccccc2-c2nnn[nH]2)cc1)[C@H](C(=O)O)C(C)C
- Activity (Rattus norvegicus [3]): Active

SMILES: CCOC(=O)[C@@H](Cc1ccc(F)cc1)NC(=O)[C@@H](CC1CCCCC1)NC(=O)[C@@H](C)NC(=O)/C=C/c1ccc(O)c(O)c1
- AUC [4]: 19332.5 µg·min/L
- AUC [5]: 35096.1 µg·min/L
- Cmax [6]: 80.6 ng/mL
- IC50 [1]: 19.6 nM
- Cmax [7]: 446 ng/mL
- AUCt [8]: 18123.5 µg·min/L
- Activity (Rattus norvegicus [9]): Active
- AUCt [10]: 5707.6 µg·min/L
- AUC [11]: 6088 µg·min/L
- Cmax [12]: 220 ng/mL
- Kd [13]: 0.49 nM
- AUCt [14]: 34243 µg·min/L
- Activity (Rattus norvegicus [15]): Active
- Activity [16]: Non-Toxic
